According to US11576894B2, “Combination therapy for the treatment of diabetes” (Janssen Pharmaceutica N.V., priority 2009, dated 2023):
Where a name gives a salt, the structure may show the parent alone.

Assays:
Male ob/ob mice = experiment: In vivo ob/ob mouse study: 22 days oral q.d., glucose, OGTT, plasma insulin, body weight; details: for Body Weight / Fed Glucose / Plasma Insulin: 22 days; for Blood Glucose AUC during OGTT: OGTT day 18, glucose 0.5 g/kg
Description: The mice were allowed ad libitum access to water and chow (commercially supplied diet). […] On the first morning, the mice were grouped as noted above and fed glucose. […] Body weight, food intake and fed blood glucose levels were measured weekly. An oral glucose tolerance test (OGTT) was conducted on the mice on day 18, after overnight fasting. […] Following completion of the study, final body weight and blood glucose level of were collected and the mice in each group was sacrificed to collect blood for biochemistry analysis, including fed blood glucose levels, fasted blood glucose levels, blood glucose levels during OGTT, plasma insulin and body weight change.

[1] = test system: Male C57BL/6 mice (high fat diet, Steptozotocin); experiment: In vivo mouse study: high fat diet / STZ C57BL/6 mice, 3 weeks oral treatment, fed and fasted glucose, OGTT; details: for Fed Glucose / Fed Glucose (% relative to the Vehicle): 3 weeks; for Blood Glucose AUC during OGTT / Blood Glucose AUC during OGTT (% relative to the Vehicle): glucose 2 g/kg; for Fasted Glucose / Fasted Glucose (% relative to the Vehicle): overnight fast from day 18
Text: All the mice were then kept on a high fat diet for another 3 weeks. […] At the start of the pre-dose period, each mouse was assigned a predose number, which was indicated on its cage card. After assignment to dosage groups, each mouse was assigned a unique study identification number (which will be indicated on its cage card) and identified by permanent marker on its tail. Mice were housed 5 mice per cage in stainless steel cages. […] The temperature and humidity ranges will be monitored by a hygrothermograph. Mice were fed ad libitum (except where noted) with high-fat diet prepared in Southern University. Water was provided ad libitum by water bottles. The quarantine period was 5 days. The test compound or vehicle was administered orally by gavage. The dosage levels were chosen to represent a range of exposures with pharmacology effects. […] The mice were randomly divided into six testing group of 10 mice per group. Each group was treated for 3 weeks, via oral administration, with one of the following regimens: (a) vehicle; […] On Day 1 (the first day of dosing), dosing at all dose levels was initiated. All groups were then dosed for 20 additional days. The following pharmacological parameters were measured during and at the end of this study: […] The following morning, a basal fasted blood glucose level was determined. […] Food was replaced after the last time point of blood glucose measurement. The pharmacological significance of any findings was determined based on statistical analysis and historical control data. Statistical analyses were performed utilizing GraphPadPRISM.

[2] = Metformin HCl 250 mg/kg P.O. q.d.

CN(C)C(=N)N=C(N)N [Metformin HCl, metformin hydrochloride, reference compound]
Fasted Glucose (Male ob/ob mice; [2]): 166 ± 16 mg/dL
Body Weight (Male ob/ob mice; [2]): 52 ± 0.9 g
Fed Glucose (Male ob/ob mice; [2]): 371 ± 35 mg/dL
Plasma Insulin (Male ob/ob mice; [2]): 48.4 ± 2.0 ng/dL
Blood Glucose AUC during OGTT (Male ob/ob mice; [2]): 91 ± 9 mg/dL * 2 h

CN(C)C(=N)N=C(N)N [Metformin, reference compound]
Fed Glucose ([1]; Metformin 500 mg/kg oral): 345.4 ± 28.4 mg/dL
Fed Glucose (% relative to the Vehicle) ([1]; Metformin 500 mg/kg oral): 82% ± 7%
Blood Glucose AUC during OGTT ([1]; Metformin 500 mg/kg oral): 34023 ± 1618 mg/dL * 2 h
Blood Glucose AUC during OGTT (% relative to the Vehicle) ([1]; Metformin 500 mg/kg oral): 92% ± 4%
Fasted Glucose ([1]; Metformin 500 mg/kg oral): 74.7 ± 3.8 mg/dL
Fasted Glucose (% relative to the Vehicle) ([1]; Metformin 500 mg/kg oral): 85.9% ± 4.4%
effect on blood glucose control (result in words) (Male ob/ob mice; 250 mg/kg): did not have an effect

Cc1ccc([C@@H]2O[C@H](CO)[C@@H](O)[C@H](O)[C@H]2O)cc1Cc1ccc(-c2ccc(F)cc2)s1 [Cmpd (I-X)]
blood glucose levels (result in words) (Male ob/ob mice; 10 mg/kg): significantly reduced
glucose excursion during OGTT (result in words) (Male ob/ob mice; 10 mg/kg): improved
Fasted Glucose (Male ob/ob mice; Cmpd (I-X) 1 mg/kg P.O. q.d.): 159 ± 12 mg/dL
Body Weight (Male ob/ob mice; Cmpd (I-X) 1 mg/kg P.O. q.d.): 53 ± 0.8 g
Fed Glucose (Male ob/ob mice; Cmpd (I-X) 1 mg/kg P.O. q.d.): 312 ± 34 mg/dL
Plasma Insulin (Male ob/ob mice; Cmpd (I-X) 1 mg/kg P.O. q.d.): 46.3 ± 3.5 ng/dL
Blood Glucose AUC during OGTT (Male ob/ob mice; Cmpd (I-X) 1 mg/kg P.O. q.d.): 80 ± 4 mg/dL * 2 h
Fasted Glucose (Male ob/ob mice; Cmpd (I-X) 10 mg/kg P.O. q.d.): 86 ± 4 mg/dL
Body Weight (Male ob/ob mice; Cmpd (I-X) 10 mg/kg P.O. q.d.): 54 ± 0.8 g
Fed Glucose (Male ob/ob mice; Cmpd (I-X) 10 mg/kg P.O. q.d.): 254 ± 22 mg/dL
Plasma Insulin (Male ob/ob mice; Cmpd (I-X) 10 mg/kg P.O. q.d.): 44.0 ± 3.6 ng/dL
Blood Glucose AUC during OGTT (Male ob/ob mice; Cmpd (I-X) 10 mg/kg P.O. q.d.): 48 ± 3 mg/dL * 2 h

OC[C@H]1O[C@@H](c2ccc(Cl)c(Cc3ccc(-c4ccc(F)nc4)s3)c2)[C@H](O)[C@@H](O)[C@@H]1O [Cmpd (I-Y)]
Fed Glucose ([1]; Cmpd (I-Y) 1 mg/kg oral): 360.7 ± 15.7 mg/dL
Fed Glucose (% relative to the Vehicle) ([1]; Cmpd (I-Y) 1 mg/kg oral): 86% ± 4%
Blood Glucose AUC during OGTT ([1]; Cmpd (I-Y) 1 mg/kg oral): 31562 ± 1447 mg/dL * 2 h
Blood Glucose AUC during OGTT (% relative to the Vehicle) ([1]; Cmpd (I-Y) 1 mg/kg oral): 85% ± 4%
Fasted Glucose ([1]; Cmpd (I-Y) 1 mg/kg oral): 77.8 ± 4.9 mg/dL
Fasted Glucose (% relative to the Vehicle) ([1]; Cmpd (I-Y) 1 mg/kg oral): 89.4% ± 5.7%
Fed Glucose ([1]; Cmpd (I-Y) 10 mg/kg oral): 290.5 ± 24.8 mg/dL
Fed Glucose (% relative to the Vehicle) ([1]; Cmpd (I-Y) 10 mg/kg oral): 69% ± 6%
Blood Glucose AUC during OGTT ([1]; Cmpd (I-Y) 10 mg/kg oral): 25209 ± 894 mg/dL * 2 h
Blood Glucose AUC during OGTT (% relative to the Vehicle) ([1]; Cmpd (I-Y) 10 mg/kg oral): 68% ± 2%
Fasted Glucose ([1]; Cmpd (I-Y) 10 mg/kg oral): 66.9 ± 3.1 mg/dL
Fasted Glucose (% relative to the Vehicle) ([1]; Cmpd (I-Y) 10 mg/kg oral): 76.9% ± 3.6%
